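1) Cells in 96-well plates. 2) Compound, 48 h, 5 concentrations. 3) Linear interpolation between surrounding doses. 4) Unreached endpoint = highest concentration. TGI marks complete inhibition of growth.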
Tests used:
Experiment in all cases: NCI tumour cell line growth inhibition, 48 h
DLD-1 colon = tested on: DLD-1 colon
DMS 273 small cell lung = tested on: DMS 273 small cell lung
HOP-18 NSCLC = tested on: HOP-18 NSCLC
P388 leukemia = tested on: P388 leukemia
P388/ADR leukemia = tested on: P388/ADR leukemia
SN12K1 renal = tested on: SN12K1 renal
XF 498 CNS = tested on: XF 498 CNS

Measured: TGI

Cc1[nH]c(=O)[nH]c(=O)c1/C=C/C(=O)NC(CO)CS(=O)Cc1ccccc1 (configuration not stated)
> 300 µM: all assays above

Source: PubChem BioAssay (NCI)
